Results: patent US20220281859A1, “HETEROCYCLIC COMPOUNDS AS KINASE INHIBITORS” (Nuvation Bio Inc., priority 2019, published 2022)

What was measured:
CDK4 = molecular target: T1, CDK4 (Homo sapiens, UniProt P11802); experiment: In vitro kinase inhibition IC50, luminescence (ADP Glo) with retinoblastoma as substrate; type: biochemical; details: ATP 25 μM, 2H at room temperature
T1 construct: purchased Invitrogen PR8064A
Method: (§1) IC50 values of compounds against CDK4 and CDK6 were determined by luminescence using retinoblastoma as substrate. Kinase assays were performed in kinase buffer (#PV6135, Invitrogen, Life Technologies Grand Island, N.Y.) where total reaction volume was 30 μL/well in 96-well half area white plates (#3693, Costar). One microliter of 25×test compounds at specific concentrations (e.g., final concentration range: 0.1 nM-200 nM) was mixed with 10 μL of 2.5×kinase (5 nM, CDK4 #PR8064A and CDK6 #PR8422B, Invitrogen) solution and 14 μL of 4× mixed solution with retinoblastoma (1 μM, #12-439, EMD Millipore, Hayward, Calif.) and ATP (25 μM, #V7038, Promega, Madison, Wis.). The plates were covered and incubated for 2H at room temperature. At the end of incubation, 25 μL of stop solution—ADP Glo reagent (#V7002, Promega) was added. After incubation for 45 min at room temperature, 50 μL of detection reagent (##V7002, Promega) was added. Readings were taken at 15 min and 45 min incubation after detection reagent was added in a Synergy Neo Plate reader (BioTek, Winooski, Vt.) at single excitation of 340 nm and Dual emission at 495 nm and 520 nm respectively. The following equations were used in the CDK4 and CDK6 assay data analysis. Percent inhibition (100-% activity) was fitted to the “four-parameter logistic model” in XLfit for determination of IC50 values.
(§2) Percent conversion of enzyme=100−{(RLUNo Drug−No enzyme*100)/RLUNo drug+Enzyme} Equation 1
(§3) Percent conversion at each data point=100−{(RLUAverage(Drug+enzyme)*100)/RLUNo drug+Enzyme} Equation 2
(§4) Percent Inhibition=100*(% Conversioneach data point/% ConversionEnzyme) Equation 3

CDK6 = molecular target: T2, CDK6 (Homo sapiens, UniProt Q00534); experiment: as above; type: biochemical; details: ATP 25 μM, 2H at room temperature
T2 construct: purchased Invitrogen PR8422B
T2 sequence (Q00534 whole entry): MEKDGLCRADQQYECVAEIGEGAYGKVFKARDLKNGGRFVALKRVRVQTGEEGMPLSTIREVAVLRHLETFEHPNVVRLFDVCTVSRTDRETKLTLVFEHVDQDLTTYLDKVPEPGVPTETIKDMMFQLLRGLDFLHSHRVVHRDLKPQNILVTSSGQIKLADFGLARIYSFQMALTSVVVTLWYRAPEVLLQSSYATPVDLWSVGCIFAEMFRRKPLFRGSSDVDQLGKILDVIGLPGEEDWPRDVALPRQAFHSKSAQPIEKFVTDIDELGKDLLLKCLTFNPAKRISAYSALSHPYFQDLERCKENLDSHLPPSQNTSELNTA
T2 sequence (P24385 whole entry partner): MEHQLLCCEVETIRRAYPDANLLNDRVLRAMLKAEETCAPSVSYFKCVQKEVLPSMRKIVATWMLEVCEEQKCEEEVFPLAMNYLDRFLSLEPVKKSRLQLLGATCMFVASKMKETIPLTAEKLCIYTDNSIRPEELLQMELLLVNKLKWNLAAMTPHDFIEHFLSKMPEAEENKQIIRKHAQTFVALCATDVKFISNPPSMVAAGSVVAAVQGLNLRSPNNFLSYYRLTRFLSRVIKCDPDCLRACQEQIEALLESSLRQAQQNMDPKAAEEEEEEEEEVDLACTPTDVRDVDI
Method: as §1, §2, §3, §4

CDK1 (cyclin B) = molecular target: T3, CDK1 (cyclin B) (Homo sapiens, UniProt P06493); experiment: Z'-LYTE kinase inhibition IC50; type: biochemical; details: ATP 34 μM, 60 minutes at room temperature
T3 construct: purchased Invitrogen Life Technologies (assay run at the vendor)
T3 sequence (P06493 whole entry): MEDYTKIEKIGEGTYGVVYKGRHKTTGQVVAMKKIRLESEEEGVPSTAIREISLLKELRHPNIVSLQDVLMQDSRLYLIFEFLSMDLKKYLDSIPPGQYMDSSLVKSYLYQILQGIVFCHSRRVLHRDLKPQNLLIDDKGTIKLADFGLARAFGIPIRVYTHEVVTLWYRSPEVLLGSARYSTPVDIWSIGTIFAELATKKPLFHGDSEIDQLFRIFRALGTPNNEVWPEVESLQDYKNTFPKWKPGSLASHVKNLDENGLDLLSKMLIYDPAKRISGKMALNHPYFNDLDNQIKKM
T3 sequence (P14635 whole entry partner): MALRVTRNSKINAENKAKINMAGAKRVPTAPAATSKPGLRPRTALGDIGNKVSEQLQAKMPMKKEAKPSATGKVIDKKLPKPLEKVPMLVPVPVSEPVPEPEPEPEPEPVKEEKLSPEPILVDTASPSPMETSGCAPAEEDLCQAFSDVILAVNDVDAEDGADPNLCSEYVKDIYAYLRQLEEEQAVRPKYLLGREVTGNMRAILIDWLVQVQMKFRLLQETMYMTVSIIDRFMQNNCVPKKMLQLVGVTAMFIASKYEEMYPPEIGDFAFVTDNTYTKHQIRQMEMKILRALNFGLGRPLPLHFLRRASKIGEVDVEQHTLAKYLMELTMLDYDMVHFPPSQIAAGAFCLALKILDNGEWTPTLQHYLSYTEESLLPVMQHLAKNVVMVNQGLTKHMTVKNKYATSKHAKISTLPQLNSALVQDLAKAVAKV
Method: IC50 values of compounds against CDK1 (cyclin B) were determined by Z′-LYTE™. These screening assays were performed at Invitrogen Life Technologies (Grand Island, N.Y.) on a low volume NBS, black 384-well plate (#4514, Corning). 0.1 μL of 100× test compound in 100% DMSO (at specific solutions) was mixed with 2.4 μL of Kinase Buffer (50 mM HEPES pH 7.5, 0.01% BRIJ-35, 10 mM MgCl2, 1 mM EGTA), 5 μL of 2× Kinase (3.5-46.4 ng CDK1/cyclin B)/Peptide (2 μM Ser/Thr 18), and 2.5 μL of 4×ATP solution (34 μM). The plates were shaken for 30 seconds, and incubated for 60 minutes at room temperature. Development Reagent Solution (5 μL of 1:1024 dilution) was added to the plates followed with another 30-second plate shake, and the plates were further incubated at room temperature for one hour. The plates were read on fluorescence plate reader with Dual emission at 445 nm and 520 nm.
(§5) The following equations were used for Z′-LYTE™ Screening Assay Data Analysis. Percent inhibition (100-% activity) was fitted to the “four-parameter logistic model” in XLfit for determination of IC50 values.

CDK2 (cyclin A) = molecular target: T4, CDK2 (cyclin A) (Homo sapiens, UniProt P24941); experiment: Z'-LYTE kinase inhibition IC50; type: biochemical; details: ATP 31 μM, 60 minutes at room temperature
T4 construct: purchased Invitrogen Life Technologies (assay run at the vendor)
Method: IC50 values of compounds against CDK2 (cyclin A) were determined by Z′-LYTE™. These screening assays were performed at Invitrogen Life Technologies (Grand Island, N.Y.) on a low volume NBS, black 384-well plate (#4514, Corning). 0.1 μL of 100× test compound in 100% DMSO (at specific solutions) was mixed with 2.4 μL of Kinase Buffer (50 mM HEPES pH 7.5, 0.01% BRIJ-35, 10 mM MgCl2, 1 mM EGTA), 5 μL of 2× Kinase (1.22-10.3 ng CDK2/cyclin A)/Peptide (2 μM Ser/Thr 12), and 2.5 μL of 4×ATP solution (31 μM). The plates were shaken for 30 seconds, and incubated for 60 minutes at room temperature. Development Reagent Solution (5 μL of 1:1024 dilution) was added to the plates followed with another 30-second plate shake and the plates were further incubated at room temperature for one hour. The plates were read on fluorescence plate reader with Dual emission at 445 nm and 520 nm.
as §5

DU4475 = experiment: Cancer cell proliferation assay as a single agent (cell viability); type: cell-based; details: Homo sapiens, DU-4475; DU4475 breast carcinoma, Rb Negative, 144H treatment
Method: (§6) The effects of test compounds were studied in two breast cancer cell lines of different subtype. The cancer cells (Table 3) were harvested during the logarithmic growth period and counted. Cell concentrations were adjusted to the appropriate number with respective medium and 90 μL cell suspensions were added to 96-well plates. After cells were seeded, the plates were shaken gently to distribute cells evenly and incubated at 37° C., 5% CO2 on day 1.
(§7) Cells were treated with test compounds at 7 to 9 concentrations within a desired concentration range (e.g. 1.1 nM-10 μM) on day 2 by series diluting the test compound stock solution (10 mM in DMSO) with culture medium. Treatment duration was 144H (with a medium change at 72H) for both MCF-7 and DU4475 cells. Cell viability was assessed by Cell Titer-Glo® as recommended by Promega (Cat. No.: G7572), or by resazurin assay (Sigma Aldrich, Cat. No.: R7017) post treatment.
(§8) Cell viability data were plotted using GraphPad Prism (GraphPad Software, Inc., San Diego, Calif.). In addition, a nonlinear regression model with a sigmoidal dose response and variable slope within GraphPad Prism was used to calculate the IC50 value of individual test compounds.

MCF-7 = experiment: as above; type: cell-based; details: Homo sapiens, MCF7; MCF-7 breast adenocarcinoma, Rb Positive, 144H treatment
Method: as §6, §7, §8

T1 sequence (P11802 whole entry): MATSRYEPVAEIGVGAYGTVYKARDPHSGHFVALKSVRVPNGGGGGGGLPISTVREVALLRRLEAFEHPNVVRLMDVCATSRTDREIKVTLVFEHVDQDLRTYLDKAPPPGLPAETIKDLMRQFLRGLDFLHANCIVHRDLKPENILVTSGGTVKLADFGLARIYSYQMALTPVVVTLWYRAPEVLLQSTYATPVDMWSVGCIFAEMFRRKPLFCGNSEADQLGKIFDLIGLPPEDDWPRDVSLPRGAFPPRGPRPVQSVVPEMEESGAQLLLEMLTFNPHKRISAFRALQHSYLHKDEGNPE
T1 sequence (P24385 whole entry partner): as the sequence (P24385 whole entry partner) above

SMILES	IC50 (CDK4) [nM]	IC50 (CDK6) [nM]	IC50 (CDK1 (cyclin B)) [nM]	IC50 (CDK2 (cyclin A)) [nM]	IC50 (DU4475) [nM]	IC50 (MCF-7) [nM]
CC(C)N1CCOc2c(F)cc(-c3nc(Nc4ccc5[nH]nc(C6CCNCC6)c5c4)ncc3F)cc21 [Compound 59, N-(5-fluoro-4-(8-fluoro-4-isopropyl-3,4-dihydro-2H-benzo[b][1,4]oxazin-6-yl)pyrimidin-2-yl)-3-(piperidin-4-yl)-1H-indazol-5-amine]	15	24	7	15	1490	3440
CC(C)N1CCOc2c(F)cc(-c3nc(Nc4nc5cc(C6=CCNCC6)ccc5s4)ncc3F)cc21 [Compound 120, N-(5-fluoro-4-(8-fluoro-4-isopropyl-3,4-dihydro-2H-benzo[b][1,4]oxazin-6-yl)pyrimidin-2-yl)-5-(1,2,3,6-tetrahydropyridin-4-yl)benzo[d]thiazol-2-amine]	> 190	> 200			130	80
